“Also recorded” adds a separate entry of the source. Structures can show the parent of a compound that is named as a salt.
Columns and labels:
wild-type E. coli = assay: Sensitization of wild-type E. coli toward antibiotics (MIC of antibiotic with/without sensitizer); type: cell-based, Escherichia coli
Description: Bacteria were cultured with the antibiotic at various concentrations in the presence or absence of bacterial sensitizer for 24 hours at 37° C. Bacterial growth density was determined by measuring OD600 (absorbance measured at a wavelength of 600 nm). […]
The formula for calculating FIC is shown below: […]

[1] = Lipid A binding assay using Dansyl-PMBN displacement on E. coli; design: species or system Escherichia coli; settings: 10 μM Dansyl-PMBN on E. coli, gradual addition of compound
Description: FIG. 21 is a graph describing the in vivo lipid A binding assay using Dansyl-PMBN as described in Example 11. Dansyl-PMBN (10 μM) was added to E. coli (OD600 measurement of about 0.5) and the fluorescent intensity at this time was recorded as F0. Sensitizers (Compound C, Compound E-20, and Polymyxin B) were added gradually and the fluorescent intensity was recorded 30 seconds later to determine the fluorescent intensity as a percent. The x-axis is concentration of the sensitizers measured in μM and the y-axis is the fluorescent intensity measured as a percent.
Lipid A is a key component of the outer membrane of Gram-negative bacteria and is responsible for maintaining its integrity of the outer membrane. The binding affinity of the compounds of the present invention to Lipid A was measured following literature procedures using a fluorescent conjugate of a polymyxin-B derivative (Dansyl-PMBN). Dansyl-PMBN binds to the lipid A part of LPS and leads to increased fluorescent intensity. […] When 10 μM of Dansyl-PMBN was added to E. coli stock (OD600 measurement around 0.5), the fluorescent intensity increased 10-fold.

E. coli outer membrane = E. coli outer membrane integrity, lysozyme lysis assay; type: cell-based, Escherichia coli; settings: lysozyme 50 μg/ml, Compound C 25 μg/ml, 10 min, OD600; dihydrochloride
Description: FIG. 20 is a graph of the E. coli outer membrane integrity measurement using the lysosomal lysis assay as described in Example 10. E. coli (OD600 measurement of about 0.5) was treated with Compound C with or without lysozyme for 10 minutes at room temperature. E. coli with impaired outer membrane caused by Compound C lead to decreased OD600 measurements. The x-axis is labeled with the compound and the y-axis is E. coli growth density determined by measuring OD600, Polymyxin B and pentamidine were used as positive controls.
The mechanism of action was also elucidated using a well-recognized lysosome assay that allows for assessment of membrane permeability. Specifically, lysozyme (about 14 KDa) breaks down bacterial cell wall and leads to bacterial lysis. However, lysozyme cannot penetrate intact Gram-negative bacterial outer membrane. With impaired Gram-negative bacterial membrane, lysozyme is able to diffuse across the disrupted membrane and enzymatically cleave peptidoglycan, which leads to bacterial lysis. […] In the absence of the sensitizer, no cell lysis was observed.

MRSA = assay: Sensitization of MRSA toward antibiotics (OD600, 24 h); type: cell-based, Staphylococcus aureus
Description: Bacteria was cultured with rifampicin at various concentrations in the presence or absence of Compound M-1 for 24 hours at 37° C. and bacterial growth density was determined by measuring OD600. The y-axis is growth density measured in percent. The x-axis is rifampicin concentration measured in micrograms per milliliter (***: p<0.01).
Compound M-1 (2.7 μg/ml) sensitizes MRSA towards existing antibiotics such as rifampicin (32-fold) (FIG. 22B) and trovafloxacin (16-fold). Rifampicin is the first line of defense against MRSA and many MRSA stains grow resistance to rifampicin through overexpression of efflux pump and other mechanisms. Combined with Compound M-1, rifampicin can be used more effectively against MRSA.

E. coli [2] = assay: E. coli viability with antibiotic in absence or presence of compound (OD600, 20 h); type: cell-based, Escherichia coli
Description: (§1) Bacterial viability was then determined by measuring density using OD600.

E. coli [3] = assay: Resistance frequency analysis of E. coli on agar plates; type: cell-based, Escherichia coli; settings: from 6*10^8 CFU E. coli; antibiotic at 2 to 6-fold MIC with 10 μg/ml Compound M-1, 48 h
Description: Resistance frequency is an important issue to consider when developing new antimicrobial agents. Using a standard resistance frequency analysis procedure, the resistance frequency was determined. […] Colonies that survived the antibiotic and Compound M-1 combination were considered resistant mutant strains toward this combinational treatment. […] Compound M-1 lowers the resistance frequency of bacteria toward antibiotics. The component in the combination responsible for the resistance was next determined. The 16 resistant colonies were challenged with another combination-rifampicin and Compound M-1.

wild type B. subtilis [4] = assay: Sensitization of B. subtilis toward antibiotics (MIC, OD600, 24 h); type: cell-based, Bacillus subtilis
Description: FIG. 22A is a bar graph showing that Compound M-1 sensitizes B. subtilis towards rifampicin as described in Example 13. Bacteria was cultured with rifampicin at various concentrations in the presence or absence of Compound M-1 for 24 hours at 37° C. and bacterial growth density was determined by measuring OD600. The y-axis is growth density measured in percent. The x-axis is rifampicin concentration measured in micrograms per milliliter (***: p<0.01).
Compound M-1 can sensitize Gram-positive bacteria such as B. subtilis towards traditional antibiotics. […] The sensitization fold is 32-fold for Compound M-1 and the FIC index is 0.14.

wild type B. subtilis [5] = assay: as above; type: cell-based, Bacillus subtilis; settings: Compound M-1 5.5 μg/ml
B. subtilis = B. subtilis viability with antibiotic in absence or presence of compound (OD600, 20 h); type: cell-based, Bacillus subtilis
Description: Bacterial viability was then determined by measuring density using OD600. […] B. subtilis was also cultured with either novobiocin or tetracycline at varying concentrations either in the absence or presence of compound M-1 (12.5 μM) for 20 hours. Bacterial viability was subsequently determined by measuring density using OD600.
as §1

E. coli [6] = assay: O-methyl novobiocin concentration inside E. coli (HPLC of lysate); type: cell-based, Escherichia coli; settings: 50 μg/ml O-methyl novobiocin, 24 h, with 10 μg/ml Compound M-1 vs without
Description: The antibiotic concentration inside E. coli with and without Compound M-1 was measured. The inactivated form of antibiotic was used because the active antibiotic would kill the bacteria or inhibit bacterial growth and this would lead to results that cannot be compared against other control experiments. O-Methyl novobiocin is an inactivated form of novobiocin that was used for this experiment.
E. coli was cultured with 50 μg/ml O-methyl novobiocin for 24 hours at 37° C. with continuous shaking in the absence and presence of 10 μg/ml Compound M-1. E. coli was then centrifuged and the supernatant was removed. To the precipitation that contained E. coli, PBS and novobiocin were added as internal standard and the resulting mixture was sonicated to lyse the cell. The mixture was diluted with acetonitrile (3×) and centrifuged. The supernatant, which contained O-methyl novobiocin, was analyzed by HPLC. The O-methyl novobiocin concentrations inside the bacteria increased 9.1-fold in E. coli in the presence of 10 μg/ml Compound M-1 (FIG. 19). Such results correlate well with the fact that 10 μg/ml Compound M-1 can sensitize E. coli towards novobiocin 8-fold.

## N=C(N)c1ccc(COc2cc(OCc3ccc(C(=N)N)cc3)cc(C(F)(F)F)c2)cc1 [Compound C, 1,3-Bis {(4-amidino)-benzyloxy}-5-trifluoromethylbenzene dihydrochloride]
wild-type E. coli
  Minimal concentration achieving 10-fold sensitization of E. coli toward erythromycin: 2.5 μg/ml
wild-type E. coli; Compound C 2 μg/ml
  Sensitization fold, rifampicin on E. coli: 8
wild-type E. coli; Compound C 4 μg/ml
  Sensitization fold, rifampicin on E. coli: 128
wild-type E. coli; Compound C 6 μg/ml
  Sensitization fold, rifampicin on E. coli: 1024
wild-type E. coli; Compound C 8 μg/ml
  Sensitization fold, rifampicin on E. coli: 2,048
wild-type E. coli; with Compound C 2 μg/ml
  MIC of rifampicin on E. coli: 1.25 µg/mL
wild-type E. coli; with Compound C 4 μg/ml
  MIC of rifampicin on E. coli: 0.08 µg/mL
wild-type E. coli; with Compound C 6 μg/ml
  MIC of rifampicin on E. coli: 0.01 µg/mL
wild-type E. coli; with Compound C 8 μg/ml
  MIC of rifampicin on E. coli: 0.005 µg/mL
wild-type E. coli; with Compound C 10 μg/ml
  MIC of rifampicin on E. coli: 0.0006 µg/mL
[1]
  Binding to lipid A (decrease of Dansyl-PMBN fluorescent intensity): bind to lipid A
E. coli outer membrane
  Lysozyme-induced lysis of E. coli (membrane integrity): quick bacterial lysis; also recorded: more potent than pentamidine

## CCCCCc1cc(OCc2ccc(C(=N)N)cc2)cc(OCc2ccc(C(=N)N)cc2)c1 [Compound E-20, 1,3-Bis {(4-amidino)-benzyloxy}-5-(n-pentyl)benzene dihydrochloride]
[1]
  Binding to lipid A (decrease of Dansyl-PMBN fluorescent intensity): bind to lipid A

## Cc1cc(COc2ccc(C(=N)N)cc2)cc(COc2ccc(C(=N)N)cc2)c1 [Compound M-1, 4,4′-(((5-Methyl-1,3-phenylene)bis(methylene))bis(oxy))dibenzimidamide Hydrochloride]
wild-type E. coli; 10 μg/ml Compound M-1
  Sensitization of E. coli towards novobiocin: 8 fold
wild-type E. coli; compound at 5 μg/ml, strain and antibiotic not stated in Table 8
  Sensitization fold: 8
MRSA; Compound M-1 2.7 μg/ml
  Sensitization fold, MRSA towards rifampicin: 32 fold
  Sensitization fold, MRSA towards trovafloxacin: 16 fold
MRSA; FIG. 22B, 24 h, 37 °C
  Sensitization of MRSA towards rifampicin (qualitative): sensitize MRSA towards rifampicin
E. coli [2]; 2 mg/mL LPS or 21 mM Mg2+, M-1 12 μM
  Effect of LPS or Mg2+ on sensitization of E. coli by M-1 with erythromycin: inhibited
E. coli [2]; M-1 25 μM or 12 μM, A-1 12 μM, A-8, 20 h
  E. coli growth inhibition, compound in combination with erythromycin: significant bacterial growth inhibition
E. coli [3]
  Colonies resistant to antibiotic-Compound M-1 combinations: 16 colonies
Wild type B. subtilis [4]; 5.5 μg/ml Compound M-1
  FIC index, rifampicin on B. subtilis: 0.11
  Sensitization fold, B. subtilis towards rifampicin: 256 fold
Wild type B. subtilis [4]; 5.5 μg/ml of Compound M-1 by itself
  Growth density compared with no-treatment group: 80%
Wild type B. subtilis [4]; Bacillus subtilis, read-out: MIC on wild type B. subtilis
  MIC: 50 µg/mL
Wild type B. subtilis [5]
  FIC index, erythromycin on B. subtilis: 0.14
  Sensitization fold, B. subtilis towards clarithromycin: 32 fold
  Sensitization fold, B. subtilis towards clindamycin: 16 fold
  Sensitization fold, B. subtilis towards entrapenem: 4 fold
  Sensitization fold, B. subtilis towards erythromycin: 32 fold
  Sensitization fold, B. subtilis towards methicillin: 4 fold
  Sensitization fold, B. subtilis towards novobiocin: 4 fold
  Sensitization fold, B. subtilis towards trovafloxacin: 8 fold
B. subtilis; Bacillus subtilis, 12.5 μM, 20 h, read-out: B. subtilis viability, compound alone
  viability at 12.5 µM: 80%
B. subtilis; Compound M-1 12.5 μM, 20 h
  B. subtilis growth inhibition, compound in combination with novobiocin or tetracycline: significant bacterial growth inhibition
B. subtilis; LTA 1 mg/mL
  Effect of lipoteichoic acid (LTA) on growth inhibition by erythromycin + M-1 in B. subtilis: could be inhibited by co-culturing with lipoteichoic acid (LTA)
B. subtilis; M-1 12.5 or 6 μM, A-2 6 or 12.5 μM, A-8, 20 h
  B. subtilis growth inhibition, compound in combination with erythromycin vs erythromycin alone: significant bacterial growth inhibition
E. coli [6]
  Increase of O-methyl novobiocin concentration inside E. coli: 9.1 fold
